# Source: patent US8557812B2, “Small molecule inhibitors of anti-apoptotic BCL-2 family members and the uses thereof” (The Regents of the University of Michigan, priority 2004, dated 2013)
# Read-outs that look alike come from different tables or passages of the source.
# What was measured:
# [1] = Body weight of xenograft mice (Example 9); assay type: in vivo; conditions: doses as in Example 9
# Method: To monitor toxicity, animal body weights were measured and plotted in FIG. 10.
# PC-3 xenograft = conditions: for Complete tumor regression: tumors regressed/total
# Method: The tumor sizes were measured 2 times a week and calculated as: Tumor Volume=(A×B^2)/2 where A and B are the tumor length and width (in mm), respectively.
# Bcl-2 = Bcl-2 (Homo sapiens, UniProt P10415); experiment: Fluorescence polarization in vitro Bcl-2 binding assay
# Bcl-2, sequence (P10415 92-205 limits assumed): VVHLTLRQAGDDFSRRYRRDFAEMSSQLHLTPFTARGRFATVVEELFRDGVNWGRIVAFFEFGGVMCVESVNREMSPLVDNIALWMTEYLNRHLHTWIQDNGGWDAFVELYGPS
# Method: Bcl-2 used in this assay is a recombinant His-fused soluble protein. […] Inc., Research Triangle Park, N.C.). […] The unlabeled Bid peptide is used as the positive control. The Ki values were calculated using our developed equation for FP assay (Nikolovska-Coleska et al., Anal. Biochem., 2004, in press). The program for calculating a Ki value is available free of charge via the Internet at http://sw16.im.med.umich.edu/software/calc_ki/.
# human Bcl-xL = human Bcl-xL (Homo sapiens, UniProt Q07817); experiment: Fluorescence polarization in vitro Bcl-xL binding assay; conditions: displacement of Flu-Bak peptide
# human Bcl-xL, sequence (Q07817 1-209 limits assumed): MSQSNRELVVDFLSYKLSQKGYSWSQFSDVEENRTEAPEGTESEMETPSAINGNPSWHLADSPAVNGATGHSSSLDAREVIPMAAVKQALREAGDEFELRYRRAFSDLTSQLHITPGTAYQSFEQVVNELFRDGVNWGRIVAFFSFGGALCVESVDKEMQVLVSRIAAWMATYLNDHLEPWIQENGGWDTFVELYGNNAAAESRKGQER
# From the text: For determination of the binding affinity to Bcl-xL protein a human Bcl-xL recombinant His-tagged protein without the C-terminus hydrophobic tail and the Bak-16mer BH3 peptide labeled with 6-carboxyfluorescein succinimidyl ester (FAM) were used.
# MDA-MB-231 (2LMP) cells = experiment: Cell growth of MDA-MB-231 (2LMP) cells (WST); assay type: cell-based; conditions: Homo sapiens, read-out: IC50 of cell growth inhibition
# [2] = test system: PrEC (human normal prostate epithelial cells); experiment: Caspase-3 activation in PrEC cells (flow cytometry); assay type: cell-based; conditions: 48 hours
# Method: (§1) The cells were analyzed by flow cytometry in the red channel and the results are shown as percent of cells having active caspase-3 (FIG. 5).
# [3] = test system: LnCap, PC-3, DU145c, 2LMP and MCF-10A cell lines; experiment: Inhibition of cell growth in human cancer cell lines (MTT); assay type: cell-based; conditions: 120 h, each of LnCap, 5 days
# Method: The cells were then incubated at 37° C. with 5% CO2 for 5 days, followed by detection of cell viability with MTT. Untreated cells were used as 100% growth.
# PC-3 cells [4] = experiment: Caspase-3 activation in PC-3 cells (flow cytometry); assay type: cell-based, human; conditions: 5 μM, 48 hours
# Method: as §1
# MDA-231 cells = experiment: Cell survival with CDDP and TW-37 alone or in combination; assay type: cell-based, human
# From the text: CDDP is a DNA damaging agent and can effectively induce apoptosis in MDA-231 breasted cancer cells and is also a clinically used chemotherapeutic drug for cancer.
# PC-3 cells [5] = experiment: Apoptosis by Annexin V-FITC staining and flow cytometry; assay type: cell-based, human; conditions: 2.5 μM, 45 hours
# PC-3 tumor = experiment: PC-3 xenograft tumor growth, single agents (Example 8); assay type: in vivo, NCr-nu male nude mice
# Method: TAXOTERE (TXT) and cisplatin (CDDP) were used as positive controls. For the PC-3 tumor model, 5×10^6 PC-3 cells were injected into the flanks of NCr-nu male nude mice on both sides. The quarter-MTD and half-MTD doses, i.e., 20 and 40 mg/kg, i.v. q.d.×5 for 3 weeks was tested.
# in vivo = conditions: female, Balb/c, mouse, iv
structure (smiles),measurement,setting,value
"CC(=O)O[C@@]12CO[C@@H]1C[C@H](O)[C@@]1(C)C(=O)[C@H](O)C3=C(C)[C@@H](OC(=O)[C@H](O)[C@@H](NC(=O)OC(C)(C)C)c4ccccc4)C[C@@](O)([C@@H](OC(=O)c4ccccc4)[C@H]21)C3(C)C [TAXOTERE, (2R,3S)-N-carboxy-3-phenylisoserine, N-tert-butyl ester, 13-ester with 5b-20-epoxy-12a,4,7b,10b,13a-hexahydroxytax-11-en-9-one 4-acetate 2-benzoate, trihydrate]",body weight during treatment,[1],reversible body weight loss
same,T-C (days) tumor growth delay,PC-3 xenograft; TXT 7.5 mg/kg,30 days
same,T/C (%) tumor growth inhibition,PC-3 xenograft; TXT 7.5 mg/kg,55.1%
same,activity under the NCI criteria (T/C<42%),PC-3 xenograft; TXT 7.5 mg/kg,is not
same,Complete tumor regression,PC-3 xenograft; TXT 7.5 mg/kg,0/10
same,T-C (days) tumor growth delay,PC-3 xenograft; TXT 11 mg/kg,32 days
same,T/C (%) tumor growth inhibition,PC-3 xenograft; TXT 11 mg/kg,32.1%
same,activity under the NCI criteria (T/C<42%),PC-3 xenograft; TXT 11 mg/kg,significantly active
same,Complete tumor regression,PC-3 xenograft; TXT 11 mg/kg,0/10
Oc1c(Cc2ccccc2)cc(Cc2ccc(-c3ccccc3)cc2)c(O)c1O [TM-142],IC50,Bcl-2,> 1000 nM
same,IC50,human Bcl-xL,> 1000 nM
same,IC50,MDA-MB-231 (2LMP) cells,100 to 20000 nM
"CC(C)c1ccccc1Cc1cc(C(=O)Nc2ccc(S(=O)(=O)c3ccccc3C(C)(C)C)cc2)c(O)c(O)c1O [TW-37, N-[(2-tert-Butyl-benzenesulfonyl)-phenyl]-2,3,4-trihydroxy-5-(2-isopropyl-benyl)-benzamide]",body weight during treatment,[1],no obvious body weight loss
same,effect on caspase-3 activation in normal prostate epithelial cells,[2],no effect
same,IC50,[3],1000 to 5000 nM
same,IC50,Bcl-2,≤ 1000 nM
same,cells having activated caspase-3,PC-3 cells [4],about 60%
same,effect on CDDP induced cell death,"MDA-231 cells; 0.2 μM or 0.3 μM TW-37, 42 hours",enhanced the CDDP induced cell death
same,apoptotic cells,PC-3 cells [5],about 35%
same,potency on tumor growth compared with TAXOTERE,PC-3 tumor; 40 mg/kg TW-37 vs TXT 7.5 mg/kg i.v. once a week,as potent as TAXOTERE
same,inhibition of tumor growth in vivo,PC-3 tumor; 20 and 40 mg/kg i.v. q.d.5×3 weeks,significantly inhibiting tumor growth in vivo
same,MTD at 3 weeks,in vivo,80 mg/kg
same,T-C (days) tumor growth delay,PC-3 xenograft; TW-37 40 mg/kg,37 days
same,activity under the NCI criteria (T/C<42%),PC-3 xenograft; TW-37 40 mg/kg,significantly active
same,T/C (%) tumor growth inhibition,PC-3 xenograft; TW-37 40 mg/kg i.v. q.d.5×3 weeks,34.5%
same,tumor growth compared to control,"PC-3 xenograft; TW-37 40 mg/kg, p<0.001, two-way ANOVA, n=10",significantly inhibited tumor growth
same,Complete tumor regression,PC-3 xenograft; TW-37 40 mg/kg,0/10
"N.N.[Cl][Pt][Cl] [cisplatin, Cisplatin, reference compound]",IC50,"MDA-231 cells; CDDP alone, 42 hours",~750 nM
